Several values for one entry are separate records, joined by “and”; a condition that tells them apart may be missing. Equal entries are not always repeated. Where two headings read alike, the source gives them in different places.
Legend:
récepteurs β1-cardiaques = biological target: T1, récepteurs β1-cardiaques (Cavia porcellus, UniProt H0W3H1); experiment: Antagonism of the effects of isoprenaline on the isolated guinea-pig atrium (method of Giudicelli, Schmitt and Boissier); set-up: species or system cobaye; settings: for Effet inotrope + de l'isoprénaline Concentration active Après produit: isoprenaline concentration giving a 10 mm increase of the trace amplitude; for Effet chronotrope + de l'isoprénaline Concentration active Après produit: isoprenaline concentration giving an increase of 30 beats per min
T1 construct: sur l'oreillette isolée de cobaye; from tissue; host or cells: isolated guinea-pig atrium
Description: L'activité 8-lytique a été recherchée au niveau des récepteurs β1-cardiaques en déterminant l'antagonisme des effets de l'isoprénaline sur l'oreillette isolée de cobaye, selon la méthode de Giudicelli, Schmitt et Boissier (J. Pharmacol. Exper. Thérapeut., 1969, 168, 116). […]
Afin de ne pas surcharger inutilement les tableaux suivants, seuls les résultats correspondant au composé n° 2 sont indiqués.

[1] = biological target: T2, récepteurs S2-bronchiques (Cavia porcellus, UniProt Q8K4Z4); experiment: Inhibition of the protection given by isoprenaline against serotonin bronchospasm (Konzett and Roessler, modified by Halpern); type: in vivo, cobaye; settings: guinea pig, i.v. 250 µg/kg; for inhibition at 0.25 mg/kg: iv, number in parentheses
T2 construct: a été étudiée chez le cobaye, à raison de cinq animaux par essai; from tissue; host or cells: whole guinea pig (bronchi, in vivo)
Description: L'action β2-adrénolytique au niveau bronchique a été étudiée chez le cobaye, à raison de cinq animaux par essai, en recherchant l'inhibition de la protection exercée par l'isoprénaline vis-à-vis du bronchospasme à la sérotonine, selon la méthode de Konzett et Roessler (Arch. Exper. Pathol. Pharmakol., 1940, 195, 71) modifiée par Halpern.
Les composés sont administrés par voie i.v. à la dose de 250 µg/kg.

[2] = dose of product 5.10^-10 mole/cm^3
[3] = dose of product 1.10^-10 mole/cm^3
[4] = dose of product 1.10^-10 mole/cm^3, ratio of active concentrations after and before addition of product

T1 sequence (H0W3H1 1-470): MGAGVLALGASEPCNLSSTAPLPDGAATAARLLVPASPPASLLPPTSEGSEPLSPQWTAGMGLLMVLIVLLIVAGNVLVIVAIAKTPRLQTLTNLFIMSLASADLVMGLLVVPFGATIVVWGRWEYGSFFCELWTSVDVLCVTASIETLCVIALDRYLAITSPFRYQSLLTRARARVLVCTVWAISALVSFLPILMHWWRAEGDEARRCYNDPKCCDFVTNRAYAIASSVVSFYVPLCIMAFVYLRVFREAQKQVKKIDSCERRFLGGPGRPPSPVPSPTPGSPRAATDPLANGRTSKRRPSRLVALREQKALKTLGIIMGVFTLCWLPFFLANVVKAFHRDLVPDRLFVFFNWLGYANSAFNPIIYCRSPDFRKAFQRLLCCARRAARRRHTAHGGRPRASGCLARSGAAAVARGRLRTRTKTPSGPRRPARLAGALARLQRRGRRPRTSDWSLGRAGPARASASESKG
T2 sequence (Q8K4Z4 whole entry): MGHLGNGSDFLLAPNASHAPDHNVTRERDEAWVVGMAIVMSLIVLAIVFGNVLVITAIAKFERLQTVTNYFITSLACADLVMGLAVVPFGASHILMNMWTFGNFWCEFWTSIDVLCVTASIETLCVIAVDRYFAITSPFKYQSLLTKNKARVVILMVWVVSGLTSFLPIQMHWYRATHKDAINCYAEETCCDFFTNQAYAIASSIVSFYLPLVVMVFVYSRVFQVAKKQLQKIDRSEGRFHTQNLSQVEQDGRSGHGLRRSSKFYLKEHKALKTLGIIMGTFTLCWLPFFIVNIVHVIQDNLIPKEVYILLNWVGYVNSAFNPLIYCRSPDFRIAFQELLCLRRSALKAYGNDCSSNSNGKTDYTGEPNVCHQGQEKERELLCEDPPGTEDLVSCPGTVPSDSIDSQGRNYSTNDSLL

activité β1-stimulante (récepteurs β1-cardiaques; at low concentrations, compared with propranolol, summary of Table II)	Effet inotrope + de l'isoprénaline Concentration active Après produit (récepteurs β1-cardiaques; [3])	Effet chronotrope + de l'isoprénaline Concentration active Après produit (récepteurs β1-cardiaques; [3])	Effet chronotrope + de l'isoprénaline Index d'activité (récepteurs β1-cardiaques; [4])	Effet inotrope + de l'isoprénaline Index d'activité (récepteurs β1-cardiaques; [4])	antagonisme des effets de l'isoprénaline (effet inotrope + et effet chronotrope +) (récepteurs β1-cardiaques; isolated atrium, single concentration 1.10^-7 g/cm^3, five preparations per product, given as maleate)	Moyenne de l'amplitude Après administration, au bout de 1 min ([1]; 1 min after administration, five animals)	Moyenne de l'amplitude Après administration, au bout de 8 min ([1]; 8 min after administration, five animals)	Moyenne de l'amplitude Après administration, au bout de 16 min ([1]; 16 min after administration, five animals)	Moyenne de l'amplitude Après administration, au bout de 30 min ([1]; 30 min after administration, five animals)	Moyenne de l'amplitude Après administration, au bout de 60 min ([1]; 60 min after administration, five animals)	blocage des récepteurs S2-bronchiques ([1]; compared with propranolol, summary of Table III)	inhibition at 0.25 mg/kg ([1]; 1 min after administration, read-out: pourcentages d'inhibition de l'isoprénaline, 1 min (converted)) [%]	inhibition at 0.25 mg/kg ([1]; 8 min after administration, read-out: pourcentages d'inhibition de l'isoprénaline, 8 min (converted)) [%]	inhibition at 0.25 mg/kg ([1]; 16 min after administration, read-out: pourcentages d'inhibition de l'isoprénaline, 16 min (converted)) [%]	SMILES	Effet inotrope + de l'isoprénaline Concentration active Après produit (récepteurs β1-cardiaques; [2])	Effet chronotrope + de l'isoprénaline Concentration active Après produit (récepteurs β1-cardiaques; [2])
															CC(C)NCC(O)COc1cccc2ccccc12 (stereo not drawn) [propranolol, isopropylamino-1 (naphtyl-1 oxy)-3 propanol-2, reference compound]	5,8.10^-8	1,8.10^-7
proche de celle du propranolol	7,6.10^-8	3,8.10^-8	7	6,5	suffisamment efficace	20,4 ± 1,4	3,8 ± 2,4	0,6 ± 0,6	0	0	très fugace	82	15	2	CC(C)(C)NCC(O)COc1c(C#N)sc2ccccc12 (stereo not drawn) [compound 2]		1,5.10^-7 and 1,8.10^-7

From patent EP0020266A1, “Derivatives of cyano-2-hydroxy-3-benzofurane and benzo(b)thiophene, their preparation and their use in therapy” (ANVAR Agence Nationale de Valorisation de la Recherche, priority 1979, dated 1980)
